Laboratory results as given in patent US7138361B2, “Herbicidal heterocycles” (E. I. du Pont de Nemours and Company, priority 2000, dated 2006).

Assays:
Type in all cases: in vivo
[1] = tested on: Surinam grass (Brachiaria decumbens); test: Test B postemergence
Procedure, shortened: (§1)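 Ratings on a 0 to 100 visual scale (100 complete control) compare treated plants with controls 13 to 15 days after application. Treatments were pre- or postemergence sprays of compound in non-phytotoxic solvent with surfactant.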

[2] = tested on: barnyardgrass (Echinochloa crus-galli); test: Test B postemergence
Procedure, shortened: as §1

[3] = tested on: blackgrass (Alopecurus myosuroides); test: Test B postemergence
Procedure, shortened: as §1

[4] = tested on: cocklebur (Xanthium strumarium); test: Test B postemergence
Procedure, shortened: as §1

corn (Zea mays) [5] = test: Test B postemergence
Procedure, shortened: as §1

[6] = tested on: crabgrass (Digitaria sanguinalis); test: Test B postemergence; conditions: Rate 125 g/ha, scale 0 to 100, 0 no effect, 100 complete control
Procedure, shortened: as §1

[7] = tested on: giant foxtail (Setaria faberii); test: Test B postemergence; conditions: Rate 125 g/ha, scale 0 to 100, 0 no effect, 100 complete control
Procedure, shortened: as §1

[8] = tested on: lambsquarters (Chenopodium album); test: Test B postemergence; conditions: Rate 125 g/ha, scale 0 to 100, 0 no effect, 100 complete control
Procedure, shortened: as §1

[9] = tested on: morning glory (Ipomoea hederacea); test: Test B postemergence; conditions: Rate 125 g/ha, scale 0 to 100, 0 no effect, 100 complete control
Procedure, shortened: as §1

[10] = tested on: pigweed (Amaranthus retroflexus); test: Test B postemergence; conditions: Rate 125 g/ha, scale 0 to 100, 0 no effect, 100 complete control
Procedure, shortened: as §1

[11] = tested on: velvetleaf (Abutilon theophrasti); test: Test B postemergence; conditions: Rate 125 g/ha, scale 0 to 100, 0 no effect, 100 complete control
Procedure, shortened: as §1

[12] = tested on: wheat (Triticum aestivum); test: Test B postemergence; conditions: Rate 125 g/ha, scale 0 to 100, 0 no effect, 100 complete control
Procedure, shortened: as §1

wild oat (Avena fatua) = test: Test B postemergence; conditions: Rate 125 g/ha, scale 0 to 100, 0 no effect, 100 complete control
Procedure, shortened: as §1

[13] = tested on: Surinam grass (Brachiaria decumbens); test: Test B preemergence
Procedure, shortened: as §1

[14] = tested on: barnyardgrass (Echinochloa crus-galli); test: Test B preemergence
Procedure, shortened: as §1

[15] = tested on: cocklebur (Xanthium strumarium); test: Test B preemergence
Procedure, shortened: as §1

corn (Zea mays) [16] = test: Test B preemergence
Procedure, shortened: as §1

[17] = tested on: crabgrass (Digitaria sanguinalis); test: Test B preemergence
Procedure, shortened: as §1

[18] = tested on: giant foxtail (Setaria faberii); test: Test B preemergence
Procedure, shortened: as §1

[19] = tested on: lambsquarters (Chenopodium album); test: Test B preemergence
Procedure, shortened: as §1

[20] = tested on: morning glory (Ipomoea hederacea); test: Test B preemergence
Procedure, shortened: as §1

[21] = tested on: pigweed (Amaranthus retroflexus); test: Test B preemergence
Procedure, shortened: as §1

rice (Oryza saliva) = test: Test B preemergence
Procedure, shortened: as §1

[22] = tested on: velvetleaf (Abutilon theophrasti); test: Test B preemergence
Procedure, shortened: as §1

[23] = tested on: smallflower flatsedge (Cyperus difformis); test: Test C flooded paddy test; conditions: for Flatsedge plant response rating: Flooded Paddy, scale 0 to 100, 0 no effect, 100 complete control; for Plant response rating, Flatsedge: flooded paddy test, scale 0 to 100 (0 no effect, 100 complete control)
Procedure, shortened: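 Greenhouse-maintained for 12 to 14 days after treatment, the paddy plants (2-leaf stage at application) were scored visually against controls. A score of 0 denotes no effect and a score of 100 denotes complete control.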

Nightshade = test: Test C preemergence; conditions: Rate 500 g/ha, visual evaluation after 12 to 14 days
Sunflower = test: Test C preemergence; conditions: Rate 500 g/ha, visual evaluation after 12 to 14 days
[24] = Rate 125 g/ha, scale 0 to 100, 0 no effect, 100 complete control
[25] = Rate 500 g/ha, scale 0 to 100, 0 is no effect, 100 is complete control, 13 to 15 days
[26] = Preemergence, Rate 500 g/ha, scale 0 to 100, 0 no effect, 100 complete control
[27] = preemergence, Rate 125 g/ha, scale of 0 to 100 where 0 is no effect and 100 is complete control, 13 to 15 days

In the case of `COc1cc(N2CCC(n3ccc(C(C)C)n3)C2=O)ccc1Cl` (stereo not drawn) [Compound 120], the “Plant response rating, Surinam grass” value [1, 24] is reported as 20, the “Plant response rating, Surinam grass” value [1, 25] is reported as 40 and the “Plant response rating, Barnyardgrass” value [2, 24] is reported as 0. The “Plant response rating, Barnyardgrass” value [2, 25] was 60, the “Plant response rating, Blackgrass” value [3, 24] was 0 and the “Plant response rating, Blackgrass” value [3, 25] was 0. The “Plant response rating, Cocklebur” value [4, 24] was 90, the “Plant response rating, Cocklebur” value [4, 25] was 100 and the “Plant response rating, Corn” value (corn (Zea mays) [5]; [24]) was 0. The “Plant response rating, Corn” value (corn (Zea mays) [5]; [25]) was 20, the “Plant response rating, Crabgrass” value [6] was 30 and the “Plant response rating, Foxtail, Giant” value [7] was 0. For the same compound, the “Plant response rating, Lambsquarters” value [8] was 60, the “Plant response rating, Morningglory” value [9] was 50 and the “Plant response rating, Pigweed” value [10] was 60. The “Plant response rating, Velvetleaf” value [11] was 20, the “Plant response rating, Wheat” value [12] was 10 and the “Plant response rating, Wild Oat” value (wild oat (Avena fatua)) was 30. For the same compound, the “Plant response rating, Surinam grass” value [13, 26] was 100, the “Plant response rating, Surinam grass” value [13, 27] was 40 and the “Plant response rating, Barnyardgrass” value [14, 26] was 100. For the same compound, the “Plant response rating, Barnyardgrass” value [14, 27] was 100, the “Plant response rating, Cocklebur” value [15, 26] was 40 and the “Plant response rating, Cocklebur” value [15, 27] was 20. The “Plant response rating, Corn” value (corn (Zea mays) [16]; [26]) was 50, the “Plant response rating, Corn” value (corn (Zea mays) [16]; [27]) was 20 and the “Plant response rating, Crabgrass” value [17, 26] was 100. For the same compound, the “Plant response rating, Crabgrass” value [17, 27] was 100, the “Plant response rating, Foxtail, Giant” value [18, 26] was 100 and the “Plant response rating, Foxtail, Giant” value [18, 27] was 100. The “Plant response rating, Lambsquarters” value [19, 26] was 100, the “Plant response rating, Lambsquarters” value [19, 27] was 100 and the “Plant response rating, Morningglory” value [20, 26] was 100. For the same compound, the “Plant response rating, Morningglory” value [20, 27] was 70, the “Plant response rating, Pigweed” value [21, 26] was 100 and the “Plant response rating, Pigweed” value [21, 27] was 100. For the same compound, the “Plant response rating, Rice” value (rice (Oryza saliva); [26]) was 30, the “Plant response rating, Rice” value (rice (Oryza saliva); [27]) was 20 and the “Plant response rating, Velvetleaf” value [22, 26] was 40. For the same compound, the “Plant response rating, Velvetleaf” value [22, 27] was 20, the “Flatsedge plant response rating” value ([23]; Rate 250 g/ha) was 100 and the “Flatsedge plant response rating” value ([23]; Rate 500 g/ha) was 100. The “Plant response rating, Flatsedge” value ([23]; Rate 62 g/ha) was 90, the “Plant response rating, Flatsedge” value ([23]; Rate 125 g/ha) was 100 and the “Plant response rating (0 to 100), Nightshade” value (Nightshade) was 100. For the same compound, the “Plant response rating (0 to 100), Sunflower” value (Sunflower) was 100.
With `CCCC(C)c1ccn(C2CCN(c3ccc(Cl)c(OC)c3)C2=O)n1` (stereo not drawn) [Compound 121] the “Plant response rating, Surinam grass” value [1, 24] was 30, the “Plant response rating, Surinam grass” value [1, 25] was 40 and the “Plant response rating, Barnyardgrass” value [2, 24] was 0. The “Plant response rating, Barnyardgrass” value [2, 25] was 90, the “Plant response rating, Blackgrass” value [3, 24] was 0 and the “Plant response rating, Blackgrass” value [3, 25] was 0. The “Plant response rating, Cocklebur” value [4, 24] was 70, the “Plant response rating, Cocklebur” value [4, 25] was 100 and the “Plant response rating, Corn” value (corn (Zea mays) [5]; [24]) was 20. For the same compound, the “Plant response rating, Corn” value (corn (Zea mays) [5]; [25]) was 30, the “Plant response rating, Crabgrass” value [6] was 30 and the “Plant response rating, Foxtail, Giant” value [7] was 0. For the same compound, the “Plant response rating, Lambsquarters” value [8] was 80, the “Plant response rating, Morningglory” value [9] was 50 and the “Plant response rating, Pigweed” value [10] was 50. The “Plant response rating, Velvetleaf” value [11] was 30, the “Plant response rating, Wheat” value [12] was 50 and the “Plant response rating, Wild Oat” value (wild oat (Avena fatua)) was 30. The “Plant response rating, Surinam grass” value [13, 26] was 40, the “Plant response rating, Surinam grass” value [13, 27] was 0 and the “Plant response rating, Barnyardgrass” value [14, 26] was 100. The “Plant response rating, Barnyardgrass” value [14, 27] was 40, the “Plant response rating, Cocklebur” value [15, 26] was 30 and the “Plant response rating, Cocklebur” value [15, 27] was 10. For the same compound, the “Plant response rating, Corn” value (corn (Zea mays) [16]; [26]) was 50, the “Plant response rating, Corn” value (corn (Zea mays) [16]; [27]) was 20 and the “Plant response rating, Crabgrass” value [17, 26] was 100. For the same compound, the “Plant response rating, Crabgrass” value [17, 27] was 10, the “Plant response rating, Foxtail, Giant” value [18, 26] was 100 and the “Plant response rating, Foxtail, Giant” value [18, 27] was 0. For the same compound, the “Plant response rating, Lambsquarters” value [19, 26] was 100, the “Plant response rating, Lambsquarters” value [19, 27] was 100 and the “Plant response rating, Morningglory” value [20, 26] was 30. The “Plant response rating, Morningglory” value [20, 27] was 20, the “Plant response rating, Pigweed” value [21, 26] was 100 and the “Plant response rating, Pigweed” value [21, 27] was 100. For the same compound, the “Plant response rating, Rice” value (rice (Oryza saliva); [26]) was 0, the “Plant response rating, Rice” value (rice (Oryza saliva); [27]) was 0 and the “Plant response rating, Velvetleaf” value [22, 26] was 20. For the same compound, the “Plant response rating, Velvetleaf” value [22, 27] was 10, the “Flatsedge plant response rating” value ([23]; Rate 250 g/ha) was 100 and the “Flatsedge plant response rating” value ([23]; Rate 500 g/ha) was 100. The “Plant response rating, Flatsedge” value ([23]; Rate 62 g/ha) was 100, the “Plant response rating, Flatsedge” value ([23]; Rate 125 g/ha) was 100 and the “Plant response rating (0 to 100), Nightshade” value (Nightshade) was 100. For the same compound, the “Plant response rating (0 to 100), Sunflower” value (Sunflower) was 70.
In the case of `CCC(C)Oc1cccc(N2CCC(n3ccc(C(C)(C)C)n3)C2=O)c1` (stereo not drawn) [Compound 127], the “Plant response rating, Surinam grass” value [1, 24] is reported as 0, the “Plant response rating, Surinam grass” value [1, 25] is reported as 0 and the “Plant response rating, Barnyardgrass” value [2, 24] is reported as 0. The “Plant response rating, Barnyardgrass” value [2, 25] was 0, the “Plant response rating, Blackgrass” value [3, 24] was 0 and the “Plant response rating, Blackgrass” value [3, 25] was 0. The “Plant response rating, Cocklebur” value [4, 24] was 0, the “Plant response rating, Cocklebur” value [4, 25] was 60 and the “Plant response rating, Corn” value (corn (Zea mays) [5]; [24]) was 0. For the same compound, the “Plant response rating, Corn” value (corn (Zea mays) [5]; [25]) was 0, the “Plant response rating, Crabgrass” value [6] was 0 and the “Plant response rating, Foxtail, Giant” value [7] was 0. For the same compound, the “Plant response rating, Lambsquarters” value [8] was 30, the “Plant response rating, Morningglory” value [9] was 0 and the “Plant response rating, Pigweed” value [10] was 0. The “Plant response rating, Velvetleaf” value [11] was 0, the “Plant response rating, Wheat” value [12] was 0 and the “Plant response rating, Wild Oat” value (wild oat (Avena fatua)) was 0. For the same compound, the “Plant response rating, Surinam grass” value [13, 26] was 70, the “Plant response rating, Surinam grass” value [13, 27] was 0 and the “Plant response rating, Barnyardgrass” value [14, 26] was 100. For the same compound, the “Plant response rating, Barnyardgrass” value [14, 27] was 0, the “Plant response rating, Cocklebur” value [15, 26] was 0 and the “Plant response rating, Cocklebur” value [15, 27] was 0. The “Plant response rating, Corn” value (corn (Zea mays) [16]; [26]) was 0, the “Plant response rating, Corn” value (corn (Zea mays) [16]; [27]) was 0 and the “Plant response rating, Crabgrass” value [17, 26] was 100. For the same compound, the “Plant response rating, Crabgrass” value [17, 27] was 100, the “Plant response rating, Foxtail, Giant” value [18, 26] was 100 and the “Plant response rating, Foxtail, Giant” value [18, 27] was 70. The “Plant response rating, Lambsquarters” value [19, 26] was 100, the “Plant response rating, Lambsquarters” value [19, 27] was 90 and the “Plant response rating, Morningglory” value [20, 26] was 0. The “Plant response rating, Morningglory” value [20, 27] was 0, the “Plant response rating, Pigweed” value [21, 26] was 100 and the “Plant response rating, Pigweed” value [21, 27] was 0. For the same compound, the “Plant response rating, Rice” value (rice (Oryza saliva); [26]) was 50, the “Plant response rating, Rice” value (rice (Oryza saliva); [27]) was 0 and the “Plant response rating, Velvetleaf” value [22, 26] was 0. For the same compound, the “Plant response rating, Velvetleaf” value [22, 27] was 0, the “Flatsedge plant response rating” value ([23]; Rate 250 g/ha) was 80 and the “Flatsedge plant response rating” value ([23]; Rate 500 g/ha) was 90. For the same compound, the “Plant response rating, Flatsedge” value ([23]; Rate 62 g/ha) was 0, the “Plant response rating, Flatsedge” value ([23]; Rate 125 g/ha) was 0 and the “Plant response rating (0 to 100), Nightshade” value (Nightshade) was 100. The “Plant response rating (0 to 100), Sunflower” value (Sunflower) was 0.
